Assay results from US20020055094A1 (priority 1996, published 2002).
Like-named read-outs stand apart in the source and are kept apart here.

What was measured:
[1] = tested on: influenza A NWS/Tokyo (H1N2); assay type: binding
[2] = target: whole virus influenza neuraminidase, influenza B strain B/Vic/02/87 (Influenza B virus, UniProt P27907); assay type: biochemical; settings: read-out: Binding Constants (M) / inhibition constants (IC50), B/Vic/02/87
[3] = target: whole virus influenza neuraminidase, influenza A strain NWS/Tokyo (Influenza A virus, UniProt P06820); test: biochemical
Sequence of whole virus influenza neuraminidase, influenza A strain NWS/Tokyo (P06820 whole entry, looked up): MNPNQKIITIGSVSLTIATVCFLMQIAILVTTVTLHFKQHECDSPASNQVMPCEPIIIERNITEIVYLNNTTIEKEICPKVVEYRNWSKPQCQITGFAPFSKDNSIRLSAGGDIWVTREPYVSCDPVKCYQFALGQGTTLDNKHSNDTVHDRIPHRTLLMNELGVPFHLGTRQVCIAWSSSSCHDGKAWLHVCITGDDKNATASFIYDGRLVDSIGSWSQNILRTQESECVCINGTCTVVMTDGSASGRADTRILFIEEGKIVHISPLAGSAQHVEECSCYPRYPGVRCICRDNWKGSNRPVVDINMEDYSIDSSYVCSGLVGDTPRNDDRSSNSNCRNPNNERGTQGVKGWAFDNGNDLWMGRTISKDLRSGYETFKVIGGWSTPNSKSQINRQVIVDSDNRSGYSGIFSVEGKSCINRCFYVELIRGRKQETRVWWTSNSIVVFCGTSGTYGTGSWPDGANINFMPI

Sequence of whole virus influenza neuraminidase, influenza B strain B/Vic/02/87 (P27907 whole entry, looked up): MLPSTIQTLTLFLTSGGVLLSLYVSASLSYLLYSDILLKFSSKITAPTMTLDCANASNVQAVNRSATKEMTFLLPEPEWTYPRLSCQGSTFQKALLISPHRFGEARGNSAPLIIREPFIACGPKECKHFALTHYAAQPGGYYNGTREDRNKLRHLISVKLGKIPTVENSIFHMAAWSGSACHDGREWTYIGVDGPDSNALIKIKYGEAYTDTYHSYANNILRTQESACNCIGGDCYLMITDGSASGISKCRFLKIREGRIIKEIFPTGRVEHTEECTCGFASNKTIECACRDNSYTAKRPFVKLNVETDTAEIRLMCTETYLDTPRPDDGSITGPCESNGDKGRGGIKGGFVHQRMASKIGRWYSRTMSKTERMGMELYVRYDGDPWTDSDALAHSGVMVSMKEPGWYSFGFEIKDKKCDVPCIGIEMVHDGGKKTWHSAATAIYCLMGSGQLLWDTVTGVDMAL

“5-acetamido-7-{6′-[6″-(6″′-biotinylaminocaproyl) -tri-amingcaroyl]-aminohexyl}-carbamoyloxy-4-guanidino -2,3,4,5-tetradeoxy-D-glycero-D-gaacto-non-2-enopyranosonic acid [Compound No. 26]” was tested, and the “compound concentration giving the best results” value [1] was 0.1 µM, the “virus amount readily detected” value [1] was 2.5×10^5 pfu/well and the IC50 [2] was 4e-08 M.

`CC(=O)N[C@H]1[C@H]([C@H](OC(=O)NCCCCCCNC(=O)NCCCCCCN)[C@H](O)CO)OC(C(=O)O)=C[C@@H]1NC(=N)N` [Compound No. 8, 5-acetamido-7-[6′-(6″-aminohexylureido)-hexyl]-carbamoyloxy-4-guanidino-2,3,4,5-tetradeoxy-D-glycero-D-galacto-non-2-enopyranosonic acid] gave an IC50 [3] of 4e-08 M.

`CC(=O)N[C@H]1[C@H]([C@H](OC(=O)NCCCCCCNC(=O)CNC(=O)CNC(=O)CNC(=O)CCCC[C@@H]2SC[C@@H]3NC(=O)N[C@@H]32)[C@H](O)CO)OC(C(=O)O)=C[C@@H]1NC(=N)N` [Compound No. 21, 5-acetamido-7-(6′-biotinylamino-tricrlycinamido-hexy) -carbamoyloxy-4-guanidino-2,3,4,5-tetradeoxy-D-glycerQ-D-galacto-non-2-enopyranosonic acid] showed an IC50 [3] of 4e-08 M.

With `CC(=O)N[C@H]1[C@H]([C@H](OC(=O)NCCCCCCN)[C@H](O)CO)OC(C(=O)O)=C[C@@H]1NC(=N)N` [compound 11, 5-acetamido-7-(6′-aminohexyl)-carbamoyloxy-4-guanidino-2,3,4,5-tetradeoxy-D-glycero-D-galacto-non-2-enopyranosonic acid] the IC50 [3] was 2e-08 M.

For `CC(=O)N[C@H]1[C@H]([C@H](OC(=O)NCCCCCCNC(=O)OC(C)(C)C)[C@H](O)CO)OC(C(=O)O)=C[C@@H]1NC(=N)N` [compound 13, 5-acetamido-7-(6′-tert-butoxycarbonylaminohexyl)-carbamoyloxy-4-guanidino-2,3,4,5-tetradeoxy-D-glycero-D-galacto-non-2-enopyranosonic acid], the IC50 [3] was 2e-08 M.

With `CC(=O)N[C@H]1[C@H]([C@H](OC(=O)NCCOCCOCCN)[C@H](O)CO)OC(C(=O)O)=C[C@@H]1NC(=N)N` [compound 17, 5-acetamido-7-{2-[2-(2-aminoethoxy)-ethoxy]-ethyl}-carbamoyloxy-4-guanidino-2,3,4,5-tetradeoxy-D-glycero-D-galacto-non-2-enopyranosonic acid] the IC50 [3] was 2e-08 M.

In the case of `CC(=O)N[C@H]1[C@H]([C@H](OC(=O)NCCCCCCNC(=O)CCCC[C@@H]2SC[C@@H]3NC(=O)N[C@@H]32)[C@H](O)CO)OC(C(=O)O)=C[C@@H]1NC(=N)N` [compound 19, 5-acetamindo-7-(6′-biotinylaminohexyl),carbamoyloxy-4-guanidino-2,3,4,5-tetradeoxy-D-crlvero-D-galacto-non-2-enopyranosonic acid], the IC50 [3] is reported as 1e-08 M.

For `CC(=O)N[C@H]1[C@H]([C@H](OC(=O)NCCCCCCNC(=O)NCCCCCCNC(=O)OC(C)(C)C)[C@H](O)CO)OC(C(=O)O)=C[C@@H]1N` [compound 20, 5-acetamido-4-amino-7-[6′-(6″-tert-butoxycarbonyl-aminohexylureido) -hexyl]-carbamoyloxy-2,3,4,5-tetradeoxy-D-glycero-D-galacto-non-2-enopyanosonic acid], the IC50 [3] was 1e-05 M.

Compound `CC(=O)N[C@H]1[C@H]([C@H](OC(=O)NCCCCCCNC(=O)CCCCCCCCCCCNC(=O)CCCC[C@@H]2SC[C@@H]3NC(=O)N[C@@H]32)[C@H](O)CO)OC(C(=O)O)=C[C@@H]1NC(=N)N` [compound 22, 5-Acetamido-7-(6′-biotinylamino-dodecanoyl-aminohexyl) -carbamoyl-4-guanidino-2,3,4,5-tetradeoxy-D-glycero-D-galacto-non-2-enopyranosonic acid] has an IC50 [3] of 3e-08 M.

In the case of `CC(=O)N[C@H]1[C@H]([C@H](OC(=O)NCCCCCCNC(=O)CCCCCNC(=O)CCCC[C@@H]2SC[C@@H]3NC(=O)N[C@@H]32)[C@H](O)CO)OC(C(=O)O)=C[C@@H]1NC(=N)N` [compound 23, 5-Acetamido-7-(6′-biotinylamino-caproyl-aminohexyl) -carbamoyl-4-guanidino-2,3,4,5-tetradeoxy-D-glycero-D-galacto-non-enopyranosonic acid], the IC50 [3] is reported as 2e-08 M.

In the case of `CC(=O)N[C@H]1[C@H]([C@H](OC(=O)NCCCCCCNC(=O)CCCCCNC(=O)CCCCCNC(=O)CCCCCNC(=O)CCCCCN)[C@H](O)CO)OC(C(=O)O)=C[C@@H]1NC(=N)N` [compound 25, 5-acetamido-7-(6′-(6″-(6″′-aminocaproyl) -triaminocaproyl) -aminohexyl) -carbamoyloxy-4-guanidino-2,3,4,5-tetradeoxy-D-glycero-D-galacto-non-2-enopyranosonic acid], the IC50 [3] is reported as 5e-08 M.

In the case of DANA [reference compound], the IC50 ([3]; read-out: Binding Constants (M) / inhibition constants (IC50), NWS/Tokyo) is reported as 4e-05 M.
